# Results reported in BindingDB's records for doi:10.1016/s0960-894x(98)00091-2 (Eli Lilly, 1999).
# Target: NMDA receptor (Rattus norvegicus)
# Assay: Binding affinity against Ionotropic glutamate receptor using [3H]- CGS-19755 displacement from rat forebrain preparations
structure (smiles),measurement,value
"N[C@@H](C[C@H](CCC(c1ccccc1)c1ccccc1)C(=O)O)C(=O)O [(2S,4S)-2-Amino-4-(3,3-diphenyl-propyl)-pentanedioic acid]",IC50,13.2 µM
